{"source": "ChEMBL document CHEMBL5579897", "about": "“Design, Synthesis, and Bioevaluation of Novel NLRP3 Inhibitor with IBD Immunotherapy from the Virtual Screen” (J Med Chem, 2024)", "key": {"Mus musculus [1]": {"tested_on": "Mus musculus", "experiment": "(§1) Antiinflammatory activity in male wild type C57BL/6 mouse model of DSS-induced ulcerative colitis assessed as reduction in NLRP3 level in colon at 5 to 20 mg/kg, po administered for 10 days with subsequent treatment of DSS for 7 days followed by normal drinking water for 3 days by immunoblot analysis", "format": "functional, organism-based", "settings": "dose 5-20 mg/kg, time 10.0 day"}, "Mus musculus [2]": {"tested_on": "Mus musculus", "experiment": "Antiinflammatory activity in male NLRP3 knockout C57BL/6 mouse model of DSS-induced ulcerative colitis assessed as reduction in body weight loss at 20 mg/kg, po administered for 10 days with subsequent treatment of DSS in drinking water", "format": "functional, organism-based", "settings": "time 10.0 day"}, "Mus musculus [3]": {"tested_on": "Mus musculus", "experiment": "Antiinflammatory activity in male NLRP3 knockout C57BL/6 mouse model of DSS-induced ulcerative colitis assessed as reduction in IL-1beta level in plasma at 20 mg/kg, po administered for 10 days with subsequent treatment of DSS in drinking water by ELISA", "format": "functional, organism-based", "settings": "time 10.0 day"}, "[4]": {"experiment": "Clearance in male C57BL/6J mouse at 5 mg/kg, iv administered as single dose and measured over 24 hrs by LC-MS/MS analysis", "format": "ADME, organism-based", "settings": "in vivo"}, "[5]": {"biological_target": "T1, Interferon-inducible protein AIM2 (Homo sapiens) (UniProt O14862)", "T1 sequence (whole entry)": "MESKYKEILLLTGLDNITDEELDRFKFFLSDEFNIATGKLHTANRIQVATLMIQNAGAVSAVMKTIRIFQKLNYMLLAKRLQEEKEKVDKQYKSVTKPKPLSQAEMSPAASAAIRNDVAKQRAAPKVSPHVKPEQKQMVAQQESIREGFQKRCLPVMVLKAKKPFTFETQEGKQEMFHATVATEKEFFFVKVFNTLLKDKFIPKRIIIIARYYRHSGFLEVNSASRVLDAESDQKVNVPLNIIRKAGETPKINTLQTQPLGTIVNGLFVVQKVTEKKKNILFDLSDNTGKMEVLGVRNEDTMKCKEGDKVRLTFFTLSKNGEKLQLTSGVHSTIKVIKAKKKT", "experiment": "Inhibition of poly-(dA: dT)-induced AIM2 inflammasome activation in LPS-primed human THP-1 cells assessed as inhibition of IL-1beta secretion at 5 uM pretreated with LPS for 4 hrs followed by compound addition for 0.5 hrs and further stimulated with poly-(dA: dT) for 6 hrs by Western blot analysis", "format": "cell-based", "settings": "time 6.5 hrs"}, "[6]": {"experiment": "AUC (0 to infinity) in male C57BL/6J mouse at 5 mg/kg, po administered as single dose and measured over 24 hrs by LC-MS/MS analysis", "format": "ADME, organism-based", "settings": "in vivo"}, "BMDM [7]": {"tested_on": "BMDM", "experiment": "Effect on LPS/nigericin induced NLRP3 intracellular expression in M-CSF induced C57BL/6 mouse BMDM cells at 0.5 to 20 uM preincubated with LPS for 4 hrs followed by compound addition for 30 mins and further incubated with nigericin for 30 mins by Western blot analysis", "format": "functional, cell-based", "settings": "dose 0.5-20 µM, time 60.0 min"}, "Mus musculus [8]": {"tested_on": "Mus musculus", "experiment": "as §1, with “immunohistochemistry” for “immunoblot”", "format": "functional, organism-based", "settings": "dose 5-20 mg/kg, time 10.0 day"}, "BMDM [9]": {"tested_on": "BMDM", "experiment": "Cytotoxicity against C57BL/6 mouse BMDM cells assessed as reduction in cell viability at 0.5 to 100 uM measured after 24 hrs by MTT assay", "format": "toxicity, cell-based", "settings": "dose 0.5-100 µM"}, "THP-1 [10]": {"tested_on": "THP-1", "experiment": "Inhibition of NLRP3-ASC interaction in LPS/nigericin induced PMA-differentiated human THP-1 cells at 5 uM preincubated with LPS for 4 hrs followed by compound addition for 30 mins and further incubated with nigericin for 30 mins by Co-immunoprecipitation analysis", "format": "cell-based", "settings": "time 60.0 min"}, "Mus musculus [11]": {"tested_on": "Mus musculus", "experiment": "as §1, with “IL-1beta” for “NLRP3”, “immunohistochemistry” for “immunoblot”", "format": "functional, organism-based", "settings": "dose 5-20 mg/kg, time 10.0 day"}, "THP-1 [12]": {"tested_on": "THP-1", "experiment": "Effect on LPS/nigericin induced IL-1beta mRNA expression in PMA-differentiated human THP-1 cells at 1 to 20 uM pretreated with compound followed by LPS stimulation for 4 hrs and further stimulated with nigericin by RT-PCR analysis", "format": "functional, cell-based", "settings": "dose 1-20 µM"}, "THP-1 [13]": {"tested_on": "THP-1", "experiment": "Effect on LPS/nigericin induced intracellular pro-IL-1beta protein expression in PMA-differentiated human THP-1 cell lysate at 0.5 to 20 uM pretreated with compound followed by LPS stimulation for 4 hrs and further stimulated with nigericin by Western blot analysis", "format": "functional, subcellular", "settings": "dose 0.5-20 µM"}, "THP-1 [14]": {"tested_on": "THP-1", "experiment": "Inhibition of LPS/nigericin induced caspase-1 P20 release in PMA-differentiated human THP-1 cells at 0.5 to 20 uM preincubated with LPS for 4 hrs followed by compound addition for 30 mins and further incubated with nigericin for 30 mins by Western blot analysis", "format": "functional, cell-based", "settings": "dose 0.5-20 µM, time 60.0 min"}, "[15]": {"experiment": "AUC (0 to infinity) in male C57BL/6J mouse at 5 mg/kg, iv administered as single dose and measured over 24 hrs by LC-MS/MS analysis", "format": "ADME, organism-based", "settings": "in vivo"}, "THP-1 [16]": {"tested_on": "THP-1", "experiment": "Inhibition of NLRP3-NEK7 interaction in LPS/nigericin induced PMA-differentiated human THP-1 cells at 5 uM preincubated with LPS for 4 hrs followed by compound addition for 30 mins and further incubated with nigericin for 30 mins by Co-immunoprecipitation analysis", "format": "cell-based", "settings": "time 60.0 min"}, "THP-1 [17]": {"tested_on": "THP-1", "experiment": "Effect on LPS/nigericin induced NLRP3 mRNA expression in PMA-differentiated human THP-1 cells at 1 to 20 uM pretreated with compound followed by LPS stimulation for 4 hrs and further stimulated with nigericin by RT-PCR analysis", "format": "functional, cell-based", "settings": "dose 1-20 µM"}, "[18]": {"experiment": "Oral bioavailability in male C57BL/6J mouse at 5 mg/kg administered as single dose and measured over 24 hrs by LC-MS/MS analysis", "format": "ADME, organism-based", "settings": "in vivo"}, "[19]": {"experiment": "AUC (0 to t) in male C57BL/6J mouse at 5 mg/kg, iv administered as single dose and measured over 24 hrs by LC-MS/MS analysis", "format": "ADME, organism-based", "settings": "in vivo"}, "Mus musculus [20]": {"tested_on": "Mus musculus", "experiment": "as §1, with “crypt loss” for “NLRP3 level in colon”, “H and E staining based” for “immunoblot”", "format": "functional, organism-based", "settings": "dose 5-20 mg/kg, time 10.0 day"}, "[21]": {"experiment": "Half life in male C57BL/6J mouse at 5 mg/kg, iv administered as single dose and measured over 24 hrs by LC-MS/MS analysis", "format": "ADME, organism-based", "settings": "in vivo"}, "Mus musculus [22]": {"tested_on": "Mus musculus", "experiment": "Antiinflammatory activity in male wild type C57BL/6 mouse model of DSS-induced ulcerative colitis assessed as reduction in body weight loss at 5 to 20 mg/kg, po administered for 10 days with subsequent treatment of DSS for 7 days followed by normal drinking water for 3 days", "format": "functional, organism-based", "settings": "dose 5-20 mg/kg, time 10.0 day"}}, "note": "The source made the active and inactive calls. The calls are words filed in the database; no cut-off is given here."}
{"compound": "COc1ccccc1CCNC(=O)/C(=C/c1ccc(Br)cc1)CS(=O)(=O)CCC#N", "values": [{"measurement": "Activity", "setting": "Mus musculus [1]", "result": "Active"}, {"measurement": "Activity", "setting": "Mus musculus [2]", "result": "inactive"}, {"measurement": "Activity", "setting": "Mus musculus [3]", "result": "inactive"}, {"measurement": "clearance", "setting": "[4]", "result": 37.8, "unit": "mL/min/kg"}, {"measurement": "inhibition", "setting": "[5]", "result": "inactive"}, {"measurement": "AUC(0-inf)", "setting": "[6]", "result": 371, "unit": "ng·h/mL"}, {"measurement": "Activity", "setting": "BMDM [7]", "result": "inactive"}, {"measurement": "Activity", "setting": "Mus musculus [8]", "result": "Active"}, {"measurement": "Activity", "setting": "BMDM [9]", "result": "Non-Toxic"}, {"measurement": "inhibition", "setting": "THP-1 [10]", "result": "Active"}, {"measurement": "Activity", "setting": "Mus musculus [11]", "result": "Active"}, {"measurement": "Activity", "setting": "THP-1 [12]", "result": "inactive"}, {"measurement": "Activity", "setting": "THP-1 [13]", "result": "inactive"}, {"measurement": "inhibition", "setting": "THP-1 [14]", "result": "Active"}, {"measurement": "AUC(0-inf)", "setting": "[15]", "result": 2230, "unit": "ng·h/mL"}, {"measurement": "inhibition", "setting": "THP-1 [16]", "result": "Active"}, {"measurement": "Activity", "setting": "THP-1 [17]", "result": "inactive"}, {"measurement": "bioavailability", "setting": "[18]", "result": 16.7, "unit": "%"}, {"measurement": "AUC(0-t) at 24 h", "setting": "[19]", "result": 2220, "unit": "ng·h/mL"}, {"measurement": "Activity", "setting": "Mus musculus [20]", "result": "Active"}, {"measurement": "half-life", "setting": "[21]", "result": 1.71, "unit": "h"}, {"measurement": "Activity", "setting": "Mus musculus [22]", "result": "Active"}]}
